Where a SMILES comes first, the peptide text is derived from it. [ ]: non-standard residue; d: D form. The star is where a group is joined. Orn(α-tetramethylguanidino) = CN(C)C(=N[C@@H](CCCN)C(=O)*)N(C)C; Pro(trans-4-F) = O=C(O)[C@@H]1C[C@@H](F)CN1; Pro(cis-4-F) = O=C(O)[C@@H]1C[C@H](F)CN1
Tests used:
E. coli RN31 = assay: Growth inhibition of E. coli RN31 during 90 min exponential growth phase; format: cell-based, Escherichia coli; conditions: for reduction of bacterial growth vs untreated control: E. coli RN31, 33% TSB, peptide 8 µg/mL, OD600, two biological replicates (n = 2)
Protocol: The following steps were performed on ice. Cells were harvested by centrifugation (4000× g, 4 °C, 25 min), washed with TICO buffer (20 mmol/L Hepes-KOH, pH 7.6, 6 mmol/L MgAc2, 30 mmol/L KAc), centrifuged (4000× g, 25 min, 4 °C), and stored at −80 °C. The cell pellet was suspended in TICO buffer (500 µL) and mixed with silica beads (zirconium glass pellets, 100 µm diameter; Carl Roth; Karlsruhe, Germany) to lyse the cells on a FastPrep-24^TM 5G (MP Biomedicals, Solon, OH, USA) using three disruption cycles (30 s, 6.0 m/s) interrupted by 1 min of incubation on ice after each cycle. Cell debris was removed by centrifugation (5000× g, 4 °C, 5 min), the supernatant was transferred to a new reaction tube, centrifuged (20,000× g, 4 °C, 20 min), the absorbance was recorded at 260 nm on a NanoPhotometer® NP80, and the sample was stored at −80 °C. […]

[1] = system: in vitro expression of sfGFP in the presence of RF1; assay: In vitro transcription-translation (iTT) assay of sfGFP in the presence of RF1; format: biochemical; conditions: peptide 5 µmol/L, RF1, 37 °C, 2 h, fluorescence, normalized to absence of PrAMPs, n = 3
Protocol: The sfGFP expression analysis relied on the NEB PureExpress Delta RF123 Kit (New England Biolabs, Frankfurt, Germany). The DNA template encoding sfGFP with a UAG stop codon was amplified from the pY71sfGFP vector by PCR using the primers sfGFP fwd ([…]) and sfGFP rev ([…]). The release factor RF1 of the kit was diluted 50-fold (v/v) in 1× Pure System Buffer (PSB, 1 mol/L magnesium acetate, 0.5 mol/L K3PO4 (pH 7.3), 1 mol/L potassium glutamate, 1 mol/L NH4Cl, 0.5 mol/L CaCl2, 1 mol/L spermidine, 0.1 mol/L putrescine, 0.1 mol/L DTT). sfGFP expression was performed in a freshly prepared mixture of kit solution A (2 µL), kit solution B (1.5 µL), 50-fold diluted RF1 (0.5 µL), sfGFP template (0.1325 pmol, 35 ng) or water as control (0.25 µL), PSB (0.25 µL), and a PrAMP (50 or 0 µmol/L) dissolved in water (0.5 µL). The reaction mixture was transferred to a black 384-well plate (flat bottom, PS, 784900, Greiner Bio-One GmbH), covered with a lid, and incubated (37 °C, 2 h) in a microplate reader (Gemini EM, Molecular Devices, San Jose, CA, USA). Fluorescence was recorded every 10 min (λex = 485 nm, λem = 535 nm).

[2] = system: 50S subunit assembly / 70S ribosome in E. coli RN31; assay: Ribosome profile analysis (RPA), sucrose gradient of E. coli RN31 lysate; format: cell-based, Escherichia coli; conditions: 90 min; for RPA [pre-50S formation]: E. coli RN31, 33% TSB, peptide 8 µg/mL, 5–25% sucrose gradient, n = 2 (Api137 n = 7)
Protocol: E. coli RN31 was grown in 33% TSB (37 °C, 200 rpm) from a starting OD600 of 0.05 to an OD600 of 0.2, measured on a NanoPhotometer® (NP80; Implen; Westlake Village, CA, USA), and divided into subcultures that were inoculated with a peptide ([…]) before being cultured for 90 min (37 °C, 200 rpm). The following steps were performed on ice. Cells were harvested by centrifugation (4000× g, 4 °C, 25 min), washed with TICO buffer (20 mmol/L Hepes-KOH, pH 7.6, 6 mmol/L MgAc2, 30 mmol/L KAc), centrifuged (4000× g, 25 min, 4 °C), and stored at −80 °C. The cell pellet was suspended in TICO buffer (500 µL) and mixed with silica beads (zirconium glass pellets, 100 µm diameter; Carl Roth; Karlsruhe, Germany) to lyse the cells on a FastPrep-24^TM 5G (MP Biomedicals, Solon, OH, USA) using three disruption cycles (30 s, 6.0 m/s) interrupted by 1 min of incubation on ice after each cycle. Cell debris was removed by centrifugation (5000× g, 4 °C, 5 min), the supernatant was transferred to a new reaction tube, centrifuged (20,000× g, 4 °C, 20 min), the absorbance was recorded at 260 nm on a NanoPhotometer® NP80, and the sample was stored at −80 °C.
A 5% (w/v) sucrose solution (6.5 mL) in TICO buffer containing 2-mercaptoethanol (4 mmol/L) was poured into an open-top centrifuge tube (13.2 mL, 14 × 89 mm, Beckman Coulter) and bottomed with a 25% (w/v) sucrose solution (6.5 mL) in TICO buffer containing 2-mercaptoethanol (4 mmol/L) using a cannula. The tube was sealed with parafilm and placed horizontally at 4 °C for 3 h and vertically at 4 °C for 30 min. A portion of the upper layer (550 µL) was replaced by lysate (500 µL, A260 = 30) and centrifuged using a swing-out rotor (SW 41 Ti, 52,500× g, 4 °C, 19 h) without a brake. The contents were transferred from bottom-up to obtain equal volumes in all wells of a black 96-well plate with a flat bottom (96 Well PP black Greiner Bio-One GmbH, Frickenhausen, Germany) using the Äkta Purifier 10 system, and absorbance was recorded at a wavelength of 254 nm. Fluorescence was measured in the plate using the PARADIGM at excitation (λex) and emission (λem) wavelengths of 485 nm and 535 nm for eGFP and 585 nm and 635 nm, respectively, for mCherry and normalized to the 70S ribosome peak (set to 100%).

Row | Structure (SMILES) | reduction of bacterial growth vs untreated control (E. coli RN31; 90 min) | Residual iTT (sfGFP expression relative to no PrAMP) [1] | RPA [pre-50S formation] [2] | 70S peak (area) relative to untreated control ([2]; E. coli RN31, peptide 8 µg/mL, sucrose gradient profile) | Residual iTT (sfGFP expression relative to no PrAMP) ([1]; listed as 4S-Fpr16) | Residual iTT (sfGFP expression relative to no PrAMP) ([1]; listed as Pro16 4S-Fpr (cis)) | OD600 of treated culture after 90 min (E. coli RN31; E. coli RN31, peptide 8 µg/mL, 90 min, initial OD600 = 0.226 ± 0.006 at 0 min) | cell count relative to the initial cell count (E. coli RN31; E. coli RN31, peptide 8 µg/mL, 90 min vs 0 min (OD600)) | Residual iTT (sfGFP expression relative to no PrAMP) ([1]; listed as 4R-Fpr16) | Residual iTT (sfGFP expression relative to no PrAMP) ([1]; listed as Pro16 4R-Fpr (trans)) | ribosomal profile, pre-50S peak ([2]; E. coli RN31, adjusted peptide concentration 4 µg/mL)
1 | CC[C@H](C)[C@H](NC(=O)[C@H](Cc1ccc(O)cc1)NC(=O)[C@@H](NC(=O)[C@@H]1CCCN1C(=O)[C@H](CCCNC(=N)N)NC(=O)[C@H](CC(N)=O)NC(=O)[C@H](CC(N)=O)NC(=O)[C@H](CCCN)N=C(N(C)C)N(C)C)C(C)C)C(=O)N1C[C@@H](F)C[C@H]1C(=O)N[C@@H](CCCNC(=N)N)C(=O)N1CCC[C@H]1C(=O)N[C@@H](CCCNC(=N)N)C(=O)N1CCC[C@H]1C(=O)N1CCC[C@H]1C(=O)N[C@@H](Cc1c[nH]cn1)C(=O)N1CCC[C@H]1C(=O)N[C@@H](CCCNC(=N)N)C(=O)N[C@@H](CC(C)C)C(=O)O [Api845] ({Orn(α-tetramethylguanidino)}-NNRPVYI[Pro(cis-4-F)]RPRPPHPRL-OH) | 62% | 26 ± 5.7% | yes |  |  |  |  |  |  |  | 
2 | CC[C@H](C)[C@H](NC(=O)[C@H](Cc1ccc(O)cc1)NC(=O)[C@@H](NC(=O)[C@@H]1CCCN1C(=O)[C@H](CCCNC(=N)N)NC(=O)[C@H](CC(N)=O)NC(=O)[C@H](CC(N)=O)NC(=O)[C@H](CCCN)N=C(N(C)C)N(C)C)C(C)C)C(=O)N1C[C@H](F)C[C@H]1C(=O)N[C@@H](CCCNC(=N)N)C(=O)N1CCC[C@H]1C(=O)N[C@@H](CCCNC(=N)N)C(=O)N1CCC[C@H]1C(=O)N1CCC[C@H]1C(=O)N[C@@H](Cc1c[nH]cn1)C(=O)N1CCC[C@H]1C(=O)N[C@@H](CCCNC(=N)N)C(=O)N[C@@H](CC(C)C)C(=O)O [Api846] ({Orn(α-tetramethylguanidino)}-NNRPVYI[Pro(trans-4-F)]RPRPPHPRL-OH) | 34% | 33 ± 3.5% | no | ~ 45% |  |  |  |  |  |  | 
3 | CC[C@H](C)[C@H](NC(=O)[C@H](Cc1ccc(O)cc1)NC(=O)[C@@H](NC(=O)[C@@H]1CCCN1C(=O)[C@H](CCCNC(=N)N)NC(=O)[C@H](CC(N)=O)NC(=O)[C@H](CC(N)=O)NC(=O)[C@H](CCCN)N=C(N(C)C)N(C)C)C(C)C)C(=O)N1CCC[C@H]1C(=O)N[C@@H](CCCNC(=N)N)C(=O)N1CCC[C@H]1C(=O)N[C@@H](CCCNC(=N)N)C(=O)N1CCC[C@H]1C(=O)N1CCC[C@H]1C(=O)N[C@@H](Cc1c[nH]cn1)C(=O)N1C[C@@H](F)C[C@H]1C(=O)N[C@@H](CCCNC(=N)N)C(=O)N[C@@H](CC(C)C)C(=O)O [Api849] ({Orn(α-tetramethylguanidino)}-NNRPVYIPRPRPPH[Pro(cis-4-F)]RL-OH) | 16% |  | no |  | 63% | 63 ± 8.9% |  |  |  |  | 
4 | CC[C@H](C)[C@H](NC(=O)[C@H](Cc1ccc(O)cc1)NC(=O)[C@@H](NC(=O)[C@@H]1CCCN1C(=O)[C@H](CCCNC(=N)N)NC(=O)[C@H](CC(N)=O)NC(=O)[C@H](CC(N)=O)NC(=O)[C@H](CCCN)N=C(N(C)C)N(C)C)C(C)C)C(=O)N1CCC[C@H]1C(=O)N[C@@H](CCCNC(=N)N)C(=O)N1CCC[C@H]1C(=O)N[C@@H](CCCNC(=N)N)C(=O)N1CCC[C@H]1C(=O)N1CCC[C@H]1C(=O)N[C@@H](Cc1c[nH]cn1)C(=O)N1C[C@H](F)C[C@H]1C(=O)N[C@@H](CCCNC(=N)N)C(=O)N[C@@H](CC(C)C)C(=O)O [Api850] ({Orn(α-tetramethylguanidino)}-NNRPVYIPRPRPPH[Pro(trans-4-F)]RL-OH) | 84% |  | yes |  |  |  | 0.333 ± 0.002 | ~ 140% | 28% | 28 ± 0.7% | reduced the area of the pre-50S peak
